Experimental data taken from publication PMC5063977 (The Journal of Biological Chemistry, 2016).

Columns and labels:
Format in all cases: cell-based
RAMP2-CLR (AM1 receptor) [1] = molecular target: T1, RAMP2-CLR (AM1 receptor) (Homo sapiens, UniProt O60895+Q16602); test: S. cerevisiae growth assay, GPA1/Gαs chimera, RAMP2 + CLR; settings: percentage of yeast strain MMY11 (lacking GPA1); 20 h; mean ± S.E., n = 7
T1 construct: FLAG; expressed in transfected cells; host or cells: HEK-293 or HEK-293S cells, transient transfection, 1:1 RAMP:CLR
T1 sequence (Q16602 23-461): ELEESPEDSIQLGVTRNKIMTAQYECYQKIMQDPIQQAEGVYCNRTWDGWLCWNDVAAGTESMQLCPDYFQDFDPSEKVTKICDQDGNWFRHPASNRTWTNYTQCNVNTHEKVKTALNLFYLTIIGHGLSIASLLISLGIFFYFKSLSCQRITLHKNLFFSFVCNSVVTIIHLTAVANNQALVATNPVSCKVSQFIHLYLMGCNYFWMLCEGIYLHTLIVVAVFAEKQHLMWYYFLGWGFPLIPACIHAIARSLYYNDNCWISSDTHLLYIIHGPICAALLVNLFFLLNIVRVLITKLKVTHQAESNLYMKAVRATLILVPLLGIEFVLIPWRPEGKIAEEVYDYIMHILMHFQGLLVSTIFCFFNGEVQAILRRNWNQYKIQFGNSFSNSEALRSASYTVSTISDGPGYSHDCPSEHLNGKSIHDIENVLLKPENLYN
T1 sequence (O60895 43-175): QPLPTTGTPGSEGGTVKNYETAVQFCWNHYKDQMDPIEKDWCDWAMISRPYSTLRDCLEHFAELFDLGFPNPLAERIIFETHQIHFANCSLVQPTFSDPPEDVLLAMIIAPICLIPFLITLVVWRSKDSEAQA
Method: FIGURE 1. […] Reporter gene activity was determined following 20 h of stimulation with each ligand. Data are expressed as a percentage of the maximum response observed in yeast strain MMY11 (lacking GPA1) and are means ± S.E. of n individual data sets. […] Data were determined as statistically different from the cognate ligand for each receptor (*, p < 0.05; **, p < 0.01; ***, p < 0.001) using a one-way ANOVA with Bonferroni's post-test.
General yeast procedures were performed as described previously ([22], [24]). The human CLR was introduced into yeast cells under the control of the PGK promoter using a plasmid containing ura3 (pDT-PGK). […] Receptor signaling was measured using the yeast growth assay as described previously ([24]). […] A fluorescein signal was detected as an increase in fluorescence (excitation wavelength = 485 nm, emission wavelength = 535 nm) as a measure of growth. Different concentrations of ligand (0.01 nM–100 μM) were assayed using 96-well plates, and fluorescence was detected using a Tecan Infinite M200 microplate reader (Tecan Ultra Evolution, Reading, UK) or a Mithras LB 940 microplate reader (Berthold Technologies, Harpenden, UK) for 20 h.
Data analysis for cAMP assays was performed in GraphPad Prism 6.0f (San Diego, CA). […] To quantitate the ligand-dependent response in the yeast system, a strain lacking GPA1 (MMY11), grown in rich medium, was used as a standard ([72]). […]

RAMP2-CLR (AM1 receptor) [2] = molecular target: T1, RAMP2-CLR (AM1 receptor); test: S. cerevisiae growth assay, GPA1/Gαi chimera, RAMP2 + CLR; settings: percentage of yeast strain MMY11 (lacking GPA1); 20 h; mean ± S.E., n = 6
Method: FIGURE 3. […] Reporter gene activity was determined following 20 h of stimulation.
General yeast procedures were performed as described previously ([22], [24]). The human CLR was introduced into yeast cells under the control of the PGK promoter using a plasmid containing ura3 (pDT-PGK). The three human RAMPs were introduced into yeast under the control of the GAPDH promoter using plasmids containing leu2 (p425-GPD) ([25]). S. cerevisiae dual reporter strains expressing chimeras of yeast GPA1(1–467) (GPA1/Gα) with the five C-terminal amino acids of […] human G proteins representing Gαs, Gα16, Gαq, Gαo, Gαi1/2, Gαi3, Gαz, Gα12, Gα13, and Gα14 (MMY84–MMY93) were used in this study ([52]). […] Receptor signaling was measured using the yeast growth assay as described previously ([24]). […] A fluorescein signal was detected as an increase in fluorescence (excitation wavelength = 485 nm, emission wavelength = 535 nm) as a measure of growth. Different concentrations of ligand (0.01 nM–100 μM) were assayed using 96-well plates, and fluorescence was detected using a Tecan Infinite M200 microplate reader (Tecan Ultra Evolution, Reading, UK) or a Mithras LB 940 microplate reader (Berthold Technologies, Harpenden, UK) for 20 h. […]

[3] = molecular target: T2, RAMP1-CLR (CGRP receptor) (Homo sapiens, UniProt O60894+Q16602); test: (Ca^2+)i mobilization, HEK-293S cells, RAMP1 + CLR; settings: HEK293S, percentage of maximal (Ca^2+)i release with 10 μM ionomycin, mean ± S.E., n = 5
T2 construct: FLAG; expressed in transfected cells; host or cells: HEK-293 or HEK-293S cells, transient transfection, 1:1 RAMP:CLR
T2 sequence (Q16602 23-461): as the sequence (Q16602 23-461) above
T2 sequence (O60894 27-148): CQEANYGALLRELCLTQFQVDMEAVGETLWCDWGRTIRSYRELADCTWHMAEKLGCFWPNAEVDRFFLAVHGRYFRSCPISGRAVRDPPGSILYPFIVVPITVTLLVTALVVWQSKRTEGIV
Method: HEK-293 cells were transfected with FuGENE 6 (Roche Applied Science) in accordance with the manufacturer's instructions using a 1:3 (w:v) DNA:FuGENE ratio and a 1:1 ratio of RAMP to CLR. […] The transfected cell lines were grown for 24–48 h prior to assaying.
Transfected HEK-293 cells were grown to confluence in black, clear bottomed, 96-well plates. […] Cells were then washed followed by the addition of 100 μl of Ca^2+-free Hanks' balanced salt solution. […] Recordings were obtained every 0.5 s for 120 s. Peak magnitude was calculated using five-point smoothing followed by correction against background fluorescence. The peak was used to generate concentration-response curves and normalized relative to 10 μM ionomycin.
Data analysis for cAMP assays was performed in GraphPad Prism 6.0f (San Diego, CA). […] These values were then used to quantify signaling bias as change in log (τ/Ka) relative to the natural cognate ligand for the respective receptor ([41]). […] Statistical differences were analyzed using one-way ANOVA or Student's t test as appropriate with post hoc Bonferroni's or Dunnett's multiple comparisons, and p < 0.05 was considered significant. […] To quantitate the ligand-dependent response in the yeast system, a strain lacking GPA1 (MMY11), grown in rich medium, was used as a standard ([72]). […]

## CSCC[C@H](NC(=O)[C@H](CC(C)C)NC(=O)[C@H](CCC(N)=O)NC(=O)[C@H](Cc1c[nH]c2ccccc12)NC(=O)[C@H](CC(C)C)NC(=O)[C@H](CCCNC(=N)N)NC(=O)[C@H](Cc1c[nH]cn1)NC(=O)[C@H](CO)NC(=O)[C@H](CC(C)C)NC(=O)[C@H](CC(N)=O)NC(=O)[C@H](CCC(N)=O)NC(=O)[C@@H](NC(=O)[C@H](CCC(N)=O)NC(=O)[C@@H]1CSSC[C@H](NC(=O)CNC(=O)[C@@H](NC(=O)[C@H](CCCNC(=N)N)NC(=O)[C@H](CC(C)C)NC(=O)[C@H](CC(C)C)NC(=O)[C@H](CCC(N)=O)NC(=O)[C@H](C)NC(=O)[C@H](CCC(N)=O)NC(=O)[C@@H](N)[C@@H](C)O)C(C)C)C(=O)N[C@@H](C(C)C)C(=O)N[C@@H](CC(C)C)C(=O)NCC(=O)N[C@@H]([C@@H](C)O)C(=O)N1)C(C)C)C(=O)NCC(=O)N1CCC[C@H]1C(=O)N[C@@H](C)C(=O)NCC(=O)N[C@@H](CCCNC(=N)N)C(=O)N[C@@H](CCC(N)=O)C(=O)N[C@@H](CC(=O)O)C(=O)N[C@@H](CO)C(=O)N[C@@H](C)C(=O)N1CCC[C@H]1C(=O)N[C@H](C(=O)N[C@@H](CC(=O)O)C(=O)N1CCC[C@H]1C(=O)N[C@@H](CO)C(=O)N[C@@H](CO)C(=O)N1CCC[C@H]1C(=O)N[C@@H](Cc1c[nH]cn1)C(=O)N[C@@H](CO)C(=O)N[C@@H](Cc1ccc(O)cc1)C(N)=O)C(C)C [AM2, adrenomedullin 2]
RAMP2-CLR (AM1 receptor) [1]
  Emax: 19.9 ± 2.5%
RAMP2-CLR (AM1 receptor) [2]
  Emax: 15.7 ± 2.5%

## CC[C@H](C)[C@H](NC(=O)[C@H](CCC(N)=O)NC(=O)[C@H](Cc1c[nH]cn1)NC(=O)[C@H](C)NC(=O)[C@H](CC(C)C)NC(=O)[C@H](CCCCN)NC(=O)[C@H](CCC(N)=O)NC(=O)[C@@H](NC(=O)[C@@H](NC(=O)[C@@H]1CSSC[C@H](NC(=O)CNC(=O)[C@H](Cc2ccccc2)NC(=O)[C@H](CO)NC(=O)[C@H](CCCNC(=N)N)NC(=O)[C@H](CC(C)C)NC(=O)CNC(=O)[C@H](CCC(N)=O)NC(=O)[C@H](Cc2ccccc2)NC(=O)[C@H](CC(N)=O)NC(=O)[C@H](CC(N)=O)NC(=O)[C@H](CCSC)NC(=O)[C@H](CO)NC(=O)[C@H](CCC(N)=O)NC(=O)[C@H](CCCNC(=N)N)NC(=O)[C@@H](N)Cc2ccc(O)cc2)C(=O)N[C@@H](CCCNC(=N)N)C(=O)N[C@@H](Cc2ccccc2)C(=O)NCC(=O)N[C@@H]([C@@H](C)O)C(=O)N1)[C@@H](C)O)C(C)C)C(=O)N[C@@H](Cc1ccc(O)cc1)C(=O)N[C@@H](CCC(N)=O)C(=O)N[C@@H](Cc1ccccc1)C(=O)N[C@H](C(=O)N[C@@H](CC(=O)O)C(=O)N[C@@H](CCCCN)C(=O)N[C@@H](CC(=O)O)C(=O)N[C@@H](CCCCN)C(=O)N[C@@H](CC(=O)O)C(=O)N[C@@H](CC(N)=O)C(=O)N[C@H](C(=O)N[C@@H](C)C(=O)N1CCC[C@H]1C(=O)N[C@@H](CCCNC(=N)N)C(=O)N[C@@H](CO)C(=O)N[C@@H](CCCCN)C(=O)N[C@H](C(=O)N[C@@H](CO)C(=O)N1CCC[C@H]1C(=O)N[C@@H](CCC(N)=O)C(=O)NCC(=O)N[C@@H](Cc1ccc(O)cc1)C(N)=O)[C@@H](C)CC)C(C)C)[C@@H](C)O [AM, adrenomedullin]
[3]
  Emax: 38.2 ± 3.8%
